Like-named read-outs stand apart in the source and are kept apart here. One block for each compound: values may come before it.
Key:
HeLa cells = test: Mitophagy assay (MTG/LTR co-localization); type: cell-based, human; settings: Aur 1.7 μM, 24 h
Description: The selective removal of damaged/inhibited mitochondria by autophagosomes and lysosomes (i.e., mitophagy) was detected by using an EVOS epifluorescence cell imaging microscope (ThermoFisher, Waltham MA, USA). HeLa cells (5 × 10^4 cells/mL) were cultured in 2 mL DMEM in glass bottom culture dishes and exposed to Aur for 24 h. HeLa cells were incubated with 400 nM Hoechst (Bis-Benzimide H 33342 trihydrochloride), 500 nM MitoTracker-Green FM and 500 nM LysoTracker-Red for 30 min at 37°C for nuclei, mitochondria and lysosome detection, respectively. Afterwards, cells were washed, resuspended with DMEM medium without red phenol and placed in the EVOS microscope for their analysis.
To establish which cell processes were associated to Aur-dependent OxPhos inhibition, mitochondrial digestion (mitophagy) and ROS production were assayed in HeLa cells (Fig 2). Mitophagy is the selective removal of dysfunctional or damaged mitochondria by autophagosomes, which is triggered by mitochondrial inner membrane depolarization and the generation of reactive oxygen species (ROS). Mitophagy was assessed by the number of lysosomes and their co-localization with mitochondria in LTR/MTG-loaded cells by epifluorescence microscopy. […] In addition, dead cells were previously removed for the dye loading procedure, thus discarding unspecific drug effects on mitophagy. […]

[1] = tested on: H9C2 mouse cardiomyocytes; test: Cell proliferation, 24 h drug exposure (non cancer cells); type: cell-based; settings: read-out: IC50 for proliferation cell rate
Description: (§1) All metastatic (breast MDA-MB231, MDA-MB468, cervix HeLa, prostate PC3, colorectal HCT116, COLO205, glioblastoma U373), low-metastatic (breast MCF-7) cancer and non-cancer (fibroblast 3T3, cardiomyocytes H9C2) cell lines (American Type Culture Collection, Rockville, MD, USA) used in this study were cultured in Petri dishes in 20 mL of Dulbecco’s Modified Eagle’s Medium (DMEM, Sigma, MO, USA) supplemented with 10% fetal bovine serum (Biowest, Mexico) and 10,000 U penicillin/streptomycin (Sigma-Aldrich, MO, USA). […] For growth and maintenance, cells were incubated in 5% CO2/95% air at 37°C and kept until 80–90% of confluence was reached. Then, cells were harvested, washed by centrifugation and resuspended in Krebs-Ringer buffer (KR, 125 mM NaCl, 5 mM KCl, 25 mM Hepes, 1 mM MgCl2, 1 mM KH2PO4, 1.4 mM CaCl2, pH 7.4) for further use. For experimentation, cancer cells (3–5 x 10^6 cells) were cultured in DMEM (with 25 mM glucose) for 24 h in the absence of drugs. Afterwards, old-medium was replaced with fresh DMEM medium (with 25 mM glucose) in the absence (control, non-treated cells) or in the presence of logarithmic concentrations of Aur and MA for 24 h more, under the same culture conditions described above. Viability of cultured cells was determined by the trypan blue exclusion assay. The protein concentration was determined by the Lowry method.
(§2) For cell proliferation in the presence of drugs, cancer cells (20 x 10^3 cells/well) were grown in 96-well plates containing DMEM (Sigma-Aldrich) plus 10% bovine fetal serum for 24 h. Afterwards, Aur or MA (0.01, 0.1, 10 and 100 μM) were added to the cell cultures and incubated for additional 24 h. The effect of these drugs on cell proliferation was determined in 96-well plates by the MTT (3-[4,5-dimethyl-thiazol-2-yl]-2,5-diphenyltetrazolium bromide) assay. The viability of cancer cells was > 95% after treatment with drugs.

3T3 mouse fibroblasts = test: as above; type: cell-based; settings: 3T3 mouse fibroblasts (non cancer), read-out: IC50 for proliferation cell rate
Description: as §1, §2

Rat Liver Mitochondria = test: Oxygen consumption of isolated mitochondria; type: biochemical; settings: for Net State 3 oxygen consumption rate / Pseudo State 4 oxygen consumption rate / RC, respiratory control / State 3 oxygen consumption rate / State 4 oxygen consumption rate / RC: Rat Liver Mitochondria
Description: Rat liver (RLM) and heart (RHM) mitochondria were isolated as described previously by differential centrifugation.
Respiration of AS-30D, liver and heart mitochondria (1 mg protein/mL) was assayed oxygraphically with a Clark-type O2 electrode in KME (120 mM KCl, 20 mM Mops, 1 mM EGTA) buffer pH 7.2 plus 2 mM KH2PO4, and different oxidizable substrates (as indicated in Results). For state 3 respiration, 600 nmol ADP were added. Mitochondria were incubated at 37°C with Aur and MA for 30–60 s before substrates were added. At the end of each respiratory measurement, dithionite was added to get the chemical zero oxygen signal.
Isolated mitochondria (1mg protein/mL) were incubated in KME buffer (120 mM KCl, 20 mM MOPS, 1 mM EGTA) pH 7.20 plus 2 mM KH2PO4 and the indicated oxidizable substrates. For state 3 (ADP-stimulated) respiration, 300-600 nmol ADP were added. RC, respiratory control; n=3. To get the maximal reduction of molecular oxygen (zero oxygen concentration), sodium dithionite (Na2O4S2) was added at the end of each measurement.

Colorectal HCT116 cells = test: Cell proliferation, 24 h drug exposure; type: cell-based, human; settings: for IC50: Colorectal HCT116, 24 h, read-out: IC50 for proliferation cell rate; for TI ratio (3T3/ cancer cells): IC50 3T3 / IC50 HCT-116; for TI ratio (H9C2/cancer cells): IC50 H9C2 / IC50 HCT-116
Description: as §1, §2

Breast MDA-MB-231 cells = test: Cell proliferation, 24 h drug exposure; type: cell-based, human; settings: for IC50: Breast MDA-MB-231, 24 h, read-out: IC50 for proliferation cell rate; for TI ratio (3T3/ cancer cells): IC50 3T3 / IC50 MDA-MB-231; for TI ratio (H9C2/cancer cells): IC50 H9C2 / IC50 MDA-MB-231
Description: as §1, §2

Breast MCF-7 cells = test: Cell proliferation, 24 h drug exposure; type: cell-based, human; settings: for IC50: Breast MCF-7 (low metastatic), 24 h, read-out: IC50 for proliferation cell rate; for TI ratio (3T3/ cancer cells): IC50 3T3 / IC50 MCF-7; for TI ratio (H9C2/cancer cells): IC50 H9C2 / IC50 MCF-7
Description: as §1, §2

Prostate PC3 cells = test: Cell proliferation, 24 h drug exposure; type: cell-based, human; settings: for TI ratio (3T3/ cancer cells): IC50 3T3 / IC50 PC3; for TI ratio (H9C2/cancer cells): IC50 H9C2 / IC50 PC3; for IC50: Prostate PC3, 24 h, read-out: IC50 for proliferation cell rate
Description: as §1, §2

[2] = 5 mM Glutamate/5 mM Malate, 10 μM Aur
[3] = 5 mM Glutamate/5 mM Malate, 25 μM Aur
[4] = 5 mM Glutamate/5 mM Malate, 50 μM Aur
[5] = 5 mM Glutamate/5 mM Malate, 100 μM Aur
[6] = Succinate 0.5 mM + Rotenone 2 µM, 10 µM Aur
[7] = Succinate 0.5 mM + Rotenone 2 µM, 25 µM Aur
[8] = Succinate 0.5 mM + Rotenone 2 µM, 50 µM Aur
[9] = Succinate 0.5 mM + Rotenone 2 µM, 100 µM Aur
[10] = 5 mM Glutamate/5 mM Malate, 10 μM MA
[11] = 5 mM Glutamate/5 mM Malate, 50 μM MA

Structure (SMILES): CC(=O)OC[C@H]1O[C@@H]([S-])[C@H](OC(C)=O)[C@@H](OC(C)=O)[C@@H]1OC(C)=O.CCP(CC)CC.[Au+] [Aur, [1-(thio-κS)-β-D-glucopyranose-2,3,4,6-tetraacetyl] (triethylphosphine)-gold]
mitophagy (MTG mitochondria/LTR lysosomes co-localization) (HeLa cells): significant enhancement | IC50 [1]: 78 ± 15 µM | IC50 (3T3 mouse fibroblasts): 42 ± 17 µM | inhibition of state 3 respiration rates (Rat Liver Mitochondria; RLM): 20–54% | increase of state 4 respiration rates (times) (Rat Liver Mitochondria; RLM, GM): 1.8–1.9 times | Net State 3 oxygen consumption rate (Rat Liver Mitochondria; [2]): 123.5 ± 59 nmol O2 min^-1 mg protein^-1 | Pseudo State 4 oxygen consumption rate (Rat Liver Mitochondria; [2]): 27.5 ± 3 nmol O2 min^-1 mg protein^-1 | RC, respiratory control (Rat Liver Mitochondria; [2]): 8 ± 1 | State 3 oxygen consumption rate (Rat Liver Mitochondria; [2]): 151 ± 61.5 nmol O2 min^-1 mg protein^-1 | State 4 oxygen consumption rate (Rat Liver Mitochondria; [2]): 18 ± 5 nmol O2 min^-1 mg protein^-1 | Net State 3 oxygen consumption rate (Rat Liver Mitochondria; [3]): 62 nmol O2 min^-1 mg protein^-1 | Pseudo State 4 oxygen consumption rate (Rat Liver Mitochondria; [3]): 27 (2) nmol O2 min^-1 mg protein^-1 | RC, respiratory control (Rat Liver Mitochondria; [3]): 6 (2) | State 3 oxygen consumption rate (Rat Liver Mitochondria; [3]): 89 (2) nmol O2 min^-1 mg protein^-1 | State 4 oxygen consumption rate (Rat Liver Mitochondria; [3]): 15 (2) nmol O2 min^-1 mg protein^-1 | Net State 3 oxygen consumption rate (Rat Liver Mitochondria; [4]): 48 nmol O2 min^-1 mg protein^-1 | Pseudo State 4 oxygen consumption rate (Rat Liver Mitochondria; [4]): 30.5 (2) nmol O2 min^-1 mg protein^-1 | RC, respiratory control (Rat Liver Mitochondria; [4]): 5.5 (2) | State 3 oxygen consumption rate (Rat Liver Mitochondria; [4]): 78.5 (2) nmol O2 min^-1 mg protein^-1 | State 4 oxygen consumption rate (Rat Liver Mitochondria; [4]): 16 (2) nmol O2 min^-1 mg protein^-1 | Net State 3 oxygen consumption rate (Rat Liver Mitochondria; [5]): 25 nmol O2 min^-1 mg protein^-1 | Pseudo State 4 oxygen consumption rate (Rat Liver Mitochondria; [5]): 48 (2) nmol O2 min^-1 mg protein^-1 | RC, respiratory control (Rat Liver Mitochondria; [5]): 3 (2) | State 3 oxygen consumption rate (Rat Liver Mitochondria; [5]): 73 (2) nmol O2 min^-1 mg protein^-1 | State 4 oxygen consumption rate (Rat Liver Mitochondria; [5]): 26 (2) nmol O2 min^-1 mg protein^-1 | Net State 3 oxygen consumption rate (Rat Liver Mitochondria; [6]): 116 (2) | Pseudo State 4 oxygen consumption rate (Rat Liver Mitochondria; [6]): 33 (2) | RC (Rat Liver Mitochondria; [6]): 5.4 (2) | State 3 oxygen consumption rate (Rat Liver Mitochondria; [6]): 150 (2) | State 4 oxygen consumption rate (Rat Liver Mitochondria; [6]): 68 (2) | Net State 3 oxygen consumption rate (Rat Liver Mitochondria; [7]): 88 (2) | Pseudo State 4 oxygen consumption rate (Rat Liver Mitochondria; [7]): 73 (2) | RC (Rat Liver Mitochondria; [7]): 4.8 (2) | State 3 oxygen consumption rate (Rat Liver Mitochondria; [7]): 161 (2) | State 4 oxygen consumption rate (Rat Liver Mitochondria; [7]): 39.5 (2) | Net State 3 oxygen consumption rate (Rat Liver Mitochondria; [8]): 36.5 (2) | Pseudo State 4 oxygen consumption rate (Rat Liver Mitochondria; [8]): 63.5 (2) | RC (Rat Liver Mitochondria; [8]): 2.3 (2) | State 3 oxygen consumption rate (Rat Liver Mitochondria; [8]): 95.5 (2) | State 4 oxygen consumption rate (Rat Liver Mitochondria; [8]): 40.5 (2) | Net State 3 oxygen consumption rate (Rat Liver Mitochondria; [9]): 20 (2) | Pseudo State 4 oxygen consumption rate (Rat Liver Mitochondria; [9]): 59 (2) | RC (Rat Liver Mitochondria; [9]): 2.5 (2) | State 3 oxygen consumption rate (Rat Liver Mitochondria; [9]): 64 (2) | State 4 oxygen consumption rate (Rat Liver Mitochondria; [9]): 56 (2) | IC50 (Colorectal HCT116 cells): 3 ± 1 µM | TI ratio (3T3/ cancer cells) (Colorectal HCT116 cells): 14 | TI ratio (H9C2/cancer cells) (Colorectal HCT116 cells): 26 | IC50 (Breast MDA-MB-231 cells): 0.8 ± 0.2 µM | TI ratio (3T3/ cancer cells) (Breast MDA-MB-231 cells): 52 | TI ratio (H9C2/cancer cells) (Breast MDA-MB-231 cells): 97 | IC50 (Breast MCF-7 cells): 5 ± 0.6 µM | TI ratio (3T3/ cancer cells) (Breast MCF-7 cells): 8 | TI ratio (H9C2/cancer cells) (Breast MCF-7 cells): 15 | TI ratio (3T3/ cancer cells) (Prostate PC3 cells): 6 | TI ratio (H9C2/cancer cells) (Prostate PC3 cells): 12 | IC50 (Prostate PC3 cells): 6.5 ± 3.5 µM

IC50 (Colorectal HCT116 cells; Homo sapiens, HCT-116): > 100 µM | IC50 (Breast MDA-MB-231 cells; Homo sapiens): 51 ± 5 µM | IC50 (Breast MCF-7 cells; Homo sapiens, MCF7): > 100 µM | IC50 (Prostate PC3 cells; Homo sapiens, PC-3): 6 ± 3 µM
Structure (SMILES): Cc1ccc(Cl)c(Nc2ccccc2C(=O)O)c1Cl [MA, Meclofenamic acid]
IC50 [1]: > 100 µM | IC50 (3T3 mouse fibroblasts; Fibroblast): > 100 µM | Net State 3 oxygen consumption rate (Rat Liver Mitochondria; [10]): 81 (1) | Pseudo State 4 oxygen consumption rate (Rat Liver Mitochondria; [10]): 32.5 (1) | RC (Rat Liver Mitochondria; [10]): 8.6 (1) | State 3 oxygen consumption rate (Rat Liver Mitochondria; [10]): 113.5 (1) | State 4 oxygen consumption rate (Rat Liver Mitochondria; [10]): 13.5 (1) | Net State 3 oxygen consumption rate (Rat Liver Mitochondria; [11]): 61 ± 27 | Pseudo State 4 oxygen consumption rate (Rat Liver Mitochondria; [11]): 42 ± 15 (3) | RC (Rat Liver Mitochondria; [11]): 2.1 ± 0.2 (3) | State 3 oxygen consumption rate (Rat Liver Mitochondria; [11]): 102 ± 23 (3) | State 4 oxygen consumption rate (Rat Liver Mitochondria; [11]): 50 ± 17 (3) | TI ratio (3T3/ cancer cells) (Colorectal HCT116 cells): 1 | TI ratio (H9C2/cancer cells) (Colorectal HCT116 cells): 1 | TI ratio (3T3/ cancer cells) (Breast MDA-MB-231 cells): 2 | TI ratio (H9C2/cancer cells) (Breast MDA-MB-231 cells): 2 | TI ratio (3T3/ cancer cells) (Breast MCF-7 cells): 1 | TI ratio (H9C2/cancer cells) (Breast MCF-7 cells): 1 | TI ratio (3T3/ cancer cells) (Prostate PC3 cells): 17 | TI ratio (H9C2/cancer cells) (Prostate PC3 cells): 17

— paper PMC11407620, “Repurposing auranofin and meclofenamic acid as energy-metabolism inhibitors and anti-cancer drugs” (PLOS ONE, 2024)
